Results from US20070142395A1, “Treatment of sexual dysfunction with 1-[3-[4-(3-chlorophenyl)-1-piperazinyl]propyl]-5-methoxy-3,4-dihydro-2(1H)-quinolone or salt thereof” (Vela Pharmaceuticals, Inc., priority 2005, published 2007).

Experiments:
patients with MDD = assay: Efficacy on MDD, main indication of the clinical trial; format: in vivo, Humans; conditions: main indication in the clinical trial; 5 mg BID, 8 weeks
Procedure: A double-blind, randomized, placebo-controlled, parallel-group study was performed to evaluate the efficacy, safety and tolerability of OPC-14523 in patients with MDD. The patients selected for participation in the trial had to meet DSM-IV-TR criteria for MDD (296.2x or 296.3x; diagnosis via MINI) and had had symptoms of depression for at least 2 months before the start of the double-blind treatment. Among other drugs prohibited during the study, patients were prohibited from taking drugs used to enhance sexual function, including, but not limited to, sildenafil, tadalafil and vardenafil, or taking psychopharmacologic drugs.

depressed patients = assay: Comparison of change in CSFQ score (difference from placebo) with bupropion XL and escitalopram, FIG. 1; format: in vivo, Humans; conditions: overall and virtually every CSFQ subscale, bupropion XL data from Clayton et al.
Procedure: FIG. 1 depicts the difference in the Changes in Sexual Function Questionaire (CSFQ) scores (difference from placebo) from baseline to week 8 for OPC-14523, buproprion XL and escitalopram. The data for bupropion XL and escitalopram were obtained from Clayton et al., 45th Annual NCDEU Meeting, Session 1-21, Boca Raton, Fla., June 6-9, 2005. For the Clayton et al. data, N=273 (placebo), 276 (bupropion XL, 300-400 mg) and 281 (escitalopram, 10-20 mg).
There is evidence that bupropion reduces the sexual dysfunction in depressed patients, and may be useful as a treatment for sexual dysfunction. Therefore, the data of OPC-14523 effect on sexual dysfunction discussed above were compared to data on the effects of bupropion XL and escitalopram on sexual function reported by Clayton et al. (45th Annual NCDEU Meeting, Boca Raton, Fla. June 6-9, 2005).
The comparison was based on the change in CSFQ score from baseline to week 8. The changes were assessed by subtracting the placebo score from the treated score at baseline and at week 8, then taking the difference of these two numbers.

## COc1cccc2c1CCC(=O)N2CCCN1CCN(c2cccc(Cl)c2)CC1 [OPC-14523, 1-[3-[4-(3-chlorophenyl)-1-piperazinyl]propyl]-5-methoxy-3,4-dihydro-2(1H)-quinolone]
Patients with MDD
  effect on MDD: did not demonstrate a statistically significant effect
Depressed patients
  change in CSFQ score from baseline to week 8 (difference from placebo), compared to bupropion XL: larger improvement
